# Literature values in article PMC3783256 (Marine Drugs, 2004).
# Molecular target: RyR1-FKBP12 complex (Oryctolagus cuniculus, UniProt P11716)
# Details: read-out: EC50, weak agonists of the receptor; ref 8a
# RyR1-FKBP12 complex, sequence (P11716 whole entry): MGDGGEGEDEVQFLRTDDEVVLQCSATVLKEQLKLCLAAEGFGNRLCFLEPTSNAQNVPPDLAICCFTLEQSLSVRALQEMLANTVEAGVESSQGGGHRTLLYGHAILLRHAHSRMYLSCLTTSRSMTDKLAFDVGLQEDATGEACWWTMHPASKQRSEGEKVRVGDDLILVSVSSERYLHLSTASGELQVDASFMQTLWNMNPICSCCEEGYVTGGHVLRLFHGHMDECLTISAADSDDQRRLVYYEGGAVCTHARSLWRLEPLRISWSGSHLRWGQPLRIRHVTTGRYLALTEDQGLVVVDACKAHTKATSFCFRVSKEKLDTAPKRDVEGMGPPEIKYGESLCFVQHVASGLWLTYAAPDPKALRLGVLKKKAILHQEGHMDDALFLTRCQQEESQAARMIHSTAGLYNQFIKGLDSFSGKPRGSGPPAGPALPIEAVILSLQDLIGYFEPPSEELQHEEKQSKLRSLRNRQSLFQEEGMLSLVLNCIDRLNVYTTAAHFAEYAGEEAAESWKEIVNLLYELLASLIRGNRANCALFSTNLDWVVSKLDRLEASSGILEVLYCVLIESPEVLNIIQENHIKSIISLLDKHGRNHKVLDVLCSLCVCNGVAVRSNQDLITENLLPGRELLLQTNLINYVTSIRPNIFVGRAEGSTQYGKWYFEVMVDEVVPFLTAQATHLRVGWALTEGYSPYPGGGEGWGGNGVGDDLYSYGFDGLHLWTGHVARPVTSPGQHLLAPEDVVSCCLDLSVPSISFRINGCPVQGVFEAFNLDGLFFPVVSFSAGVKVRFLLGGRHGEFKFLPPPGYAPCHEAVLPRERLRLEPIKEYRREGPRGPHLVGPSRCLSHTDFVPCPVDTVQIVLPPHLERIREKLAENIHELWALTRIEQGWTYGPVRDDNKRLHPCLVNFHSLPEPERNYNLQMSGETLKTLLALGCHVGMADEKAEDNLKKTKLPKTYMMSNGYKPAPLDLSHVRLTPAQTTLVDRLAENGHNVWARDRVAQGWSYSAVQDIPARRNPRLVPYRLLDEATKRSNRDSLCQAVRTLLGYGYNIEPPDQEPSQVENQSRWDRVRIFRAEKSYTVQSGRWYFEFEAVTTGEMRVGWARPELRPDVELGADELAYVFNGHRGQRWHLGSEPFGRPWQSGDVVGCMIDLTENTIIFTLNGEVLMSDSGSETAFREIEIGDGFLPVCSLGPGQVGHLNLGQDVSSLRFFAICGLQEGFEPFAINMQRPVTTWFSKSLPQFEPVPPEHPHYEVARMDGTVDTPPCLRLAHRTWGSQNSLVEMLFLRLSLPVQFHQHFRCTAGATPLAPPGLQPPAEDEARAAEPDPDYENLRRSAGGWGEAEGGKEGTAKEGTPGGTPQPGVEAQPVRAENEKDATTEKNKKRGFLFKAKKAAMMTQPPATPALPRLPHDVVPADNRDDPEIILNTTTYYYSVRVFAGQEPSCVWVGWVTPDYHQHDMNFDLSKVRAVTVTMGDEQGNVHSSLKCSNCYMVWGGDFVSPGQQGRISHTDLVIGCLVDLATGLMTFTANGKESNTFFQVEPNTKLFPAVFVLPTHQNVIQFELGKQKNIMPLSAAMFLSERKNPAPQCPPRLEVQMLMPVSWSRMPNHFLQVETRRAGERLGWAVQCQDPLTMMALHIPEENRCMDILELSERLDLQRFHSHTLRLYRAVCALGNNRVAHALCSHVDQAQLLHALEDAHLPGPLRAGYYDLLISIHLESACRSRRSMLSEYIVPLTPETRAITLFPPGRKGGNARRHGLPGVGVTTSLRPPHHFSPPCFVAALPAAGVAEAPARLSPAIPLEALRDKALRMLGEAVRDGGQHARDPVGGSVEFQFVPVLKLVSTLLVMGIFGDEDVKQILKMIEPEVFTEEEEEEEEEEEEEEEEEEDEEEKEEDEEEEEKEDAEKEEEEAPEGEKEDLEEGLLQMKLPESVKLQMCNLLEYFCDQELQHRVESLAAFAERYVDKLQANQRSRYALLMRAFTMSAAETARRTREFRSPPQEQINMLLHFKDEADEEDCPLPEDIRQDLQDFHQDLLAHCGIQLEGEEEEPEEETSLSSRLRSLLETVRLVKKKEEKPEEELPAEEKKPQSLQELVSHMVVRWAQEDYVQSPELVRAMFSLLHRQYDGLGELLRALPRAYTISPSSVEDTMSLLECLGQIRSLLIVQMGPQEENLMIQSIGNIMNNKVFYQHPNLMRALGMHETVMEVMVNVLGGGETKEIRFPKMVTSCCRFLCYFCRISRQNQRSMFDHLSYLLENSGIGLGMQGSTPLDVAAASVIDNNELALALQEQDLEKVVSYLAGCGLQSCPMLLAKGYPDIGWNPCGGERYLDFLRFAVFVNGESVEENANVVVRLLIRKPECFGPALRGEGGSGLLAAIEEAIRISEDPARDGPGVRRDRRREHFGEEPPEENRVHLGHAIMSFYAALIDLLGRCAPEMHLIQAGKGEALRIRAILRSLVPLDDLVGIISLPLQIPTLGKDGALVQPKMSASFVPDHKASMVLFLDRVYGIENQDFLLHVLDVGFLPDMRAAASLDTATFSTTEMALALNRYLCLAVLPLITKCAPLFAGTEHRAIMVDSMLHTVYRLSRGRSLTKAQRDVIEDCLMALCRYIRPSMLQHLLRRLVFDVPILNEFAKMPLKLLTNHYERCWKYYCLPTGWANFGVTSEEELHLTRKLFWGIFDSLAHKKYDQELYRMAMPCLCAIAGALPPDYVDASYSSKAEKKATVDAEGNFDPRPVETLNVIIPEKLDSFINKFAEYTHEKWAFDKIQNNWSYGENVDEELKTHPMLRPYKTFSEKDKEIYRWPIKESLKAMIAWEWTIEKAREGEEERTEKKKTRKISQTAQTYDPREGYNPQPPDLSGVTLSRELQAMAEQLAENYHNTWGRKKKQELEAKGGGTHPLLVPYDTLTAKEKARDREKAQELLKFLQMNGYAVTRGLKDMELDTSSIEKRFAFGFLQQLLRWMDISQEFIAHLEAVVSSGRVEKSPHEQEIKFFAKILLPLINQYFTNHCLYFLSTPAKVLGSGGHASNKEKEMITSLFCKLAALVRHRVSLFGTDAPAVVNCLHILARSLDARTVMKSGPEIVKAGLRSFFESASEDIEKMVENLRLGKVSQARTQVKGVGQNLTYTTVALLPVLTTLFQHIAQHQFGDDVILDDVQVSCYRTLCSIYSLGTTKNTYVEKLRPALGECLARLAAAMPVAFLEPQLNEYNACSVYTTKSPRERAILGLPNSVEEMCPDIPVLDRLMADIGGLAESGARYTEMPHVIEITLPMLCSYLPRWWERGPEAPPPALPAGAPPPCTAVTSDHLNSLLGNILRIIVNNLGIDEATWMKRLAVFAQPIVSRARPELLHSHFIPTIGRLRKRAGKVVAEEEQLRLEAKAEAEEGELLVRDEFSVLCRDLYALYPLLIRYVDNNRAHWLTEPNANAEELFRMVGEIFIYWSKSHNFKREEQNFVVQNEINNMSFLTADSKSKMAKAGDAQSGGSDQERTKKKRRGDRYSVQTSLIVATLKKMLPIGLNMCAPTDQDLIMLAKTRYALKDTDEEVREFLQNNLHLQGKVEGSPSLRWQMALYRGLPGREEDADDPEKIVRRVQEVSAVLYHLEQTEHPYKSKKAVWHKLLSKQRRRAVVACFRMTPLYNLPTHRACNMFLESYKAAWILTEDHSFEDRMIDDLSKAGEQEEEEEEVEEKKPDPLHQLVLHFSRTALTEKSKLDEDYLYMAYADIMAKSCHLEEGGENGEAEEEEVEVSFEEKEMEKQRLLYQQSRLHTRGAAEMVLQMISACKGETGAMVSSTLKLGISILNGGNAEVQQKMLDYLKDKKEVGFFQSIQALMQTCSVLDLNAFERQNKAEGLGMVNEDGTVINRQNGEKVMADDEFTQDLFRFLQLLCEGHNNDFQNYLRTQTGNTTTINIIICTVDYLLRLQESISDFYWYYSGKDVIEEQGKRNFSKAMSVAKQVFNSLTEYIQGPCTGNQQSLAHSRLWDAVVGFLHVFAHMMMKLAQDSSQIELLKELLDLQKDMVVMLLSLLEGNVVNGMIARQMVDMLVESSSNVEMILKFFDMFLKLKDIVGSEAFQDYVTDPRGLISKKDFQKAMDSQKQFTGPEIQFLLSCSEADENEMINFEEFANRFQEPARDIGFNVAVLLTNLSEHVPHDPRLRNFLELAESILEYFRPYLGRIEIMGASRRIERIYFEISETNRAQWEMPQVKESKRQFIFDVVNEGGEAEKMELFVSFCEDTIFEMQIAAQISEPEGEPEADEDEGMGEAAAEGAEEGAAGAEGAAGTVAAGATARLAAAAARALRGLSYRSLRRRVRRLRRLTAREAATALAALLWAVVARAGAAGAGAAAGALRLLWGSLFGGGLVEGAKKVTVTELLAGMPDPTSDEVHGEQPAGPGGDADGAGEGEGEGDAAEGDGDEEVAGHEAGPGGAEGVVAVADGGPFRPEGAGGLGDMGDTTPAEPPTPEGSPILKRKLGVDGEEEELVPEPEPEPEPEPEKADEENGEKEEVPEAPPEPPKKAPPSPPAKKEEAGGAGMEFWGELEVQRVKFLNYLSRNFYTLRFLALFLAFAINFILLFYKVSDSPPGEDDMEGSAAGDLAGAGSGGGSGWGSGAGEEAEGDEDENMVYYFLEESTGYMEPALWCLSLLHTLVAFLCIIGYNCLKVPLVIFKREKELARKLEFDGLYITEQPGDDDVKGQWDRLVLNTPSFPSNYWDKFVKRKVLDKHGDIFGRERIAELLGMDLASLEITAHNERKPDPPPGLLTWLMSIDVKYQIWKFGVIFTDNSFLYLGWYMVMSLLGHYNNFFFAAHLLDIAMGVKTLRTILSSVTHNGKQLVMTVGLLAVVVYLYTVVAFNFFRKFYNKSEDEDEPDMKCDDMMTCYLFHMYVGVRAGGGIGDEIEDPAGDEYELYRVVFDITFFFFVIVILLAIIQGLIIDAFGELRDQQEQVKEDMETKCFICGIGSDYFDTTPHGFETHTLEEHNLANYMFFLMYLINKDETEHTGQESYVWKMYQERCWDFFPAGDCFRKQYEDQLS
# RyR1-FKBP12 complex, sequence (P62943 2-108 partner limits assumed): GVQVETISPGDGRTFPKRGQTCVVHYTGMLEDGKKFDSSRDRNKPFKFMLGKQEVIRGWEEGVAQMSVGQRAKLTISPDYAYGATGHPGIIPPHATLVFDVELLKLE
substance,measurement,value
"15,34-O-di-sulfatobastadin-7",EC50,13.6 µM
